Measurements as given in publication PMC7880690, “Chemical genetics and proteome-wide site mapping reveal cysteine MARylation by PARP-7 on immune-relevant protein targets” (eLife, 2021).

Assays:
[1] = target: T1, PARP5bcat (Homo sapiens, UniProt Q9H2K2); experiment: ADP-ribosylation plate assay, PARP5bcat; type: biochemical; details: in vitro plate assay; ± SEM, at least two biological replicates
T1 construct: PARP5bcat

[2] = target: T2, PARP3FL (Homo sapiens, UniProt Q9Y6F1); experiment: ADP-ribosylation plate assay, PARP3FL
T2 sequence (Q9Y6F1 1-533): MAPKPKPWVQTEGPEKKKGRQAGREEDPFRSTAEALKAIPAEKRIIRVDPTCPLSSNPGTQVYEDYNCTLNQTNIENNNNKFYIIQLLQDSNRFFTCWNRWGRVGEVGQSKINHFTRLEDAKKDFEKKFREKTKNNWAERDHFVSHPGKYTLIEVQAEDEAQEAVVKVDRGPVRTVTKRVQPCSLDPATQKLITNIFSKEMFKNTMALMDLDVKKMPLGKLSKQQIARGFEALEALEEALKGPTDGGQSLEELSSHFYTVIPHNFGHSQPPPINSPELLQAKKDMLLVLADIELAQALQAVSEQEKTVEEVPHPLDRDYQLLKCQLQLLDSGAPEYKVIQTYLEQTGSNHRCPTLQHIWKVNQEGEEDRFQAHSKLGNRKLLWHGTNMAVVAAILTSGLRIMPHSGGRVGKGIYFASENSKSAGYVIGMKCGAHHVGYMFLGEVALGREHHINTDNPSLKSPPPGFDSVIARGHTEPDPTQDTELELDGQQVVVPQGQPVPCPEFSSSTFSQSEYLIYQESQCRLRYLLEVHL

[3] = target: T3, PARP8FL (Homo sapiens, UniProt Q8N3A8); experiment: ADP-ribosylation plate assay, PARP8FL
T3 sequence (Q8N3A8 1-854): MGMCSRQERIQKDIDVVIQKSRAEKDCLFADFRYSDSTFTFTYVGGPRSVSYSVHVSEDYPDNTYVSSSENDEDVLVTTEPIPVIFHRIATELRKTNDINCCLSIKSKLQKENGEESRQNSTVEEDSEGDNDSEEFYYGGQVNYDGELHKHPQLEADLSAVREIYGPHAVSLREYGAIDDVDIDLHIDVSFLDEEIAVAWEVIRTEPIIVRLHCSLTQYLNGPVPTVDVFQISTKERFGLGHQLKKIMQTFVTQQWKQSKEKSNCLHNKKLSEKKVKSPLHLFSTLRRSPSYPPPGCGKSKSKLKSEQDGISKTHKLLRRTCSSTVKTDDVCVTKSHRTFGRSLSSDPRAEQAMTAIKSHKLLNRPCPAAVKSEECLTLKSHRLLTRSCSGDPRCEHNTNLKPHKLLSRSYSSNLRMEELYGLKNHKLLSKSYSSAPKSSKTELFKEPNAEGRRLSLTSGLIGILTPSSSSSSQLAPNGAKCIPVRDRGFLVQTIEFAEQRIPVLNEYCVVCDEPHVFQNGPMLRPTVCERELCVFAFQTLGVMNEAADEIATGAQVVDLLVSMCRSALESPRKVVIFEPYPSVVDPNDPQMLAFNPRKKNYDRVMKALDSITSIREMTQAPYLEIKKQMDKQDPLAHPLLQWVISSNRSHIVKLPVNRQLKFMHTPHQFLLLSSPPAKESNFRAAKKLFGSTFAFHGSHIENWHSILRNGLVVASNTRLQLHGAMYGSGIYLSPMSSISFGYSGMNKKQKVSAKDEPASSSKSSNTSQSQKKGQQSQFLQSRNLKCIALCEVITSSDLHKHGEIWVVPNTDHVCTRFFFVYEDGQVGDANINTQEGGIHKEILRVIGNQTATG

[4] = target: T4, PARP16FL (Homo sapiens, UniProt Q8N5Y8); experiment: ADP-ribosylation plate assay, PARP16FL
T4 sequence (Q8N5Y8 1-322): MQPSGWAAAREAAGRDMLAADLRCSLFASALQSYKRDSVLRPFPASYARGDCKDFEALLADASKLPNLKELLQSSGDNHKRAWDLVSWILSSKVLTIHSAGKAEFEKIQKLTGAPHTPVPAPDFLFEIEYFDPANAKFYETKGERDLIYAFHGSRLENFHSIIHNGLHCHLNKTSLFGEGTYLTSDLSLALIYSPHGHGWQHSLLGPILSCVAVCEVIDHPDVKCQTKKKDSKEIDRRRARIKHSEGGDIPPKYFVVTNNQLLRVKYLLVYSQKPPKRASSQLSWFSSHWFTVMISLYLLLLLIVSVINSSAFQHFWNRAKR

T1 sequence (Q9H2K2 959-1164): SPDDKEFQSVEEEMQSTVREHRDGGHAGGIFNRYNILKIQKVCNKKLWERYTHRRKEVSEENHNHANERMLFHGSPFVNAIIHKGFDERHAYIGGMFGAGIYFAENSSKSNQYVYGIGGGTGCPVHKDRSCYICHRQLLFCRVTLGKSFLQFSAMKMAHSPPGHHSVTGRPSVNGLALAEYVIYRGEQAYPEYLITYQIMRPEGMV

## N#Cc1ccc(N2CCN(C(=O)c3cc(Cc4n[nH]c(=O)c5ccccc45)ccc3F)CC2)nc1 [Phthal01, 6-(4-(2-fluoro-5-((4-oxo-3,4-dihydrophthalazin-1-yl)methyl)benzoyl)piperazin-1-yl)nicotinonitrile]
[1]
  IC50: 2.52 ± 0.2 µM
[2]
  IC50: 0.32 ± 0.002 µM
[3]
  IC50: 4.7 ± 1 µM
[4]
  IC50: 4.3 ± 1 µM
